Test results from PubChem BioAssay (NCI).
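Briefly, cells in 96-well plates were exposed to five compound concentrations for 48 h, and endpoints were estimated by linear interpolation. Abbreviation: GI50, concentration required for 50% inhibition of growth. TGI marks complete inhibition of growth.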

Experiments:
Test in all cases: NCI tumour cell line growth inhibition, 48 h
HOP-62 NSCLC = tested on: HOP-62 NSCLC
SF-268 CNS = tested on: SF-268 CNS
NCI-H226 lung = tested on: NCI-H226 lung
A549 NSCLC = tested on: A549 NSCLC
NCI-H522 lung = tested on: NCI-H522 lung
RPMI-8226 leukemia = tested on: RPMI-8226 leukemia
SK-OV-3 ovarian = tested on: SK-OV-3 ovarian
TK-10 renal = tested on: TK-10 renal
HCT-15 colon = tested on: HCT-15 colon
T-47D breast = tested on: T-47D breast
HCC-2998 colon = tested on: HCC-2998 colon
U251 CNS = tested on: U251 CNS
HT29 colon = tested on: HT29 colon
UACC-257 melanoma = tested on: UACC-257 melanoma
MALME-3M melanoma = tested on: MALME-3M melanoma
MCF7 breast = tested on: MCF7 breast
SNB-19 CNS = tested on: SNB-19 CNS
NCI-H460 lung = tested on: NCI-H460 lung
SK-MEL-5 melanoma = tested on: SK-MEL-5 melanoma
SF-295 CNS = tested on: SF-295 CNS
SF-539 CNS = tested on: SF-539 CNS
UO-31 renal = tested on: UO-31 renal
RXF 393 renal = tested on: RXF 393 renal
HL-60(TB) leukemia = tested on: HL-60(TB) leukemia
COLO 205 colon = tested on: COLO 205 colon
NCI-H23 lung = tested on: NCI-H23 lung
M14 melanoma = tested on: M14 melanoma
NCI/ADR-RES ovarian = tested on: NCI/ADR-RES ovarian
BT-549 breast = tested on: BT-549 breast
SW-620 colon = tested on: SW-620 colon
OVCAR-5 ovarian = tested on: OVCAR-5 ovarian
SK-MEL-2 melanoma = tested on: SK-MEL-2 melanoma
MDA-MB-231 breast = tested on: MDA-MB-231 breast
SN12C renal = tested on: SN12C renal
CCRF-CEM leukemia = tested on: CCRF-CEM leukemia
HOP-92 NSCLC = tested on: HOP-92 NSCLC
KM12 colon = tested on: KM12 colon
PC-3 prostate = tested on: PC-3 prostate
HCT-116 colon = tested on: HCT-116 colon
SK-MEL-28 melanoma = tested on: SK-MEL-28 melanoma
K-562 leukemia = tested on: K-562 leukemia
ACHN renal = tested on: ACHN renal
HS 578T breast = tested on: HS 578T breast
OVCAR-3 ovarian = tested on: OVCAR-3 ovarian
OVCAR-4 ovarian = tested on: OVCAR-4 ovarian
UACC-62 melanoma = tested on: UACC-62 melanoma
LOX IMVI melanoma = tested on: LOX IMVI melanoma
EKVX NSCLC = tested on: EKVX NSCLC
MOLT-4 leukemia = tested on: MOLT-4 leukemia
786-0 renal = tested on: 786-0 renal
OVCAR-8 ovarian = tested on: OVCAR-8 ovarian
MDA-MB-435 = tested on: MDA-MB-435
DU-145 prostate = tested on: DU-145 prostate
A498 renal = tested on: A498 renal
IGROV1 ovarian = tested on: IGROV1 ovarian
CAKI-1 renal = tested on: CAKI-1 renal
SNB-75 CNS = tested on: SNB-75 CNS
SR leukemia = tested on: SR leukemia
MDA-N = tested on: MDA-N

COc1cc(/C=C/C(=O)c2c(C)nc3ccccc3c2/C=C/c2ccc(C)cc2)cc(OC)c1OC
GI50 (HOP-62 NSCLC): 3.1 µM | TGI (HOP-62 NSCLC): 9.94 µM | GI50 (SF-268 CNS): 2.21 µM | TGI (SF-268 CNS): 6.42 µM | GI50 (NCI-H226 lung): 2.18 µM | TGI (NCI-H226 lung): 6.11 µM | GI50 (A549 NSCLC): 2.94 µM | TGI (A549 NSCLC): > 100 µM | GI50 (NCI-H522 lung): 1.83 µM | TGI (NCI-H522 lung): 5.56 µM | GI50 (RPMI-8226 leukemia): 2.56 µM | TGI (RPMI-8226 leukemia): 7.87 µM | GI50 (SK-OV-3 ovarian): 11 µM | TGI (SK-OV-3 ovarian): > 100 µM | GI50 (TK-10 renal): 5.37 µM | TGI (TK-10 renal): 67 µM | GI50 (HCT-15 colon): 1.53 µM | TGI (HCT-15 colon): 3.62 µM | GI50 (T-47D breast): 2.49 µM | TGI (T-47D breast): > 100 µM | GI50 (HCC-2998 colon): 1.73 µM | TGI (HCC-2998 colon): 3.26 µM | GI50 (U251 CNS): 1.73 µM | TGI (U251 CNS): 3.57 µM | GI50 (HT29 colon): 2.81 µM | TGI (HT29 colon): 14 µM | GI50 (UACC-257 melanoma): 2.71 µM | TGI (UACC-257 melanoma): 7.32 µM | GI50 (MALME-3M melanoma): 1.85 µM | TGI (MALME-3M melanoma): 3.52 µM | GI50 (MCF7 breast): 1.39 µM | TGI (MCF7 breast): 3.51 µM | GI50 (SNB-19 CNS): 1.69 µM | TGI (SNB-19 CNS): 3.14 µM | GI50 (NCI-H460 lung): 2.06 µM | TGI (NCI-H460 lung): 5.09 µM | GI50 (SK-MEL-5 melanoma): 1.75 µM | TGI (SK-MEL-5 melanoma): 3.24 µM | GI50 (SF-295 CNS): 2.19 µM | TGI (SF-295 CNS): 5.4 µM | GI50 (SF-539 CNS): 1.92 µM | TGI (SF-539 CNS): 3.69 µM | GI50 (UO-31 renal): 1.37 µM | TGI (UO-31 renal): 2.67 µM | GI50 (RXF 393 renal): 1.63 µM | TGI (RXF 393 renal): 3.13 µM | GI50 (HL-60(TB) leukemia): 2.22 µM | TGI (HL-60(TB) leukemia): 6.29 µM | GI50 (COLO 205 colon): 2.53 µM | TGI (COLO 205 colon): 6.09 µM | GI50 (NCI-H23 lung): 1.72 µM | TGI (NCI-H23 lung): 3.8 µM | GI50 (M14 melanoma): 2.18 µM | TGI (M14 melanoma): 5.03 µM | GI50 (NCI/ADR-RES ovarian): 2.48 µM | TGI (NCI/ADR-RES ovarian): 7.78 µM | GI50 (BT-549 breast): 2.06 µM | TGI (BT-549 breast): 4.57 µM | GI50 (SW-620 colon): 3.09 µM | TGI (SW-620 colon): > 100 µM | GI50 (OVCAR-5 ovarian): 2.18 µM | TGI (OVCAR-5 ovarian): 5.38 µM | GI50 (SK-MEL-2 melanoma): 2.11 µM | TGI (SK-MEL-2 melanoma): 5.05 µM | GI50 (MDA-MB-231 breast): 2.14 µM | TGI (MDA-MB-231 breast): 5.23 µM | GI50 (SN12C renal): 1.85 µM | TGI (SN12C renal): 4.31 µM | GI50 (CCRF-CEM leukemia): 2.83 µM | TGI (CCRF-CEM leukemia): > 100 µM | GI50 (HOP-92 NSCLC): 1.61 µM | TGI (HOP-92 NSCLC): 3.9 µM | GI50 (KM12 colon): 1.87 µM | TGI (KM12 colon): 3.6 µM | GI50 (PC-3 prostate): 2.59 µM | TGI (PC-3 prostate): 8.76 µM | GI50 (HCT-116 colon): 1.36 µM | TGI (HCT-116 colon): 2.82 µM | GI50 (SK-MEL-28 melanoma): 2.02 µM | TGI (SK-MEL-28 melanoma): 3.91 µM | GI50 (K-562 leukemia): 2.75 µM | TGI (K-562 leukemia): > 100 µM | GI50 (ACHN renal): 1.99 µM | TGI (ACHN renal): 4.6 µM | GI50 (HS 578T breast): 3.26 µM | TGI (HS 578T breast): > 100 µM | GI50 (OVCAR-3 ovarian): 1.76 µM | TGI (OVCAR-3 ovarian): 3.23 µM | GI50 (OVCAR-4 ovarian): 5.62 µM | TGI (OVCAR-4 ovarian): 52.9 µM | GI50 (UACC-62 melanoma): 1.6 µM | TGI (UACC-62 melanoma): 3.08 µM | GI50 (LOX IMVI melanoma): 1.45 µM | TGI (LOX IMVI melanoma): 2.76 µM | GI50 (EKVX NSCLC): 2.32 µM | TGI (EKVX NSCLC): 6.32 µM | GI50 (MOLT-4 leukemia): 2.56 µM | TGI (MOLT-4 leukemia): > 100 µM | GI50 (786-0 renal): 1.95 µM | TGI (786-0 renal): 3.81 µM | GI50 (OVCAR-8 ovarian): 3.25 µM | TGI (OVCAR-8 ovarian): > 100 µM | GI50 (MDA-MB-435): 1.99 µM | TGI (MDA-MB-435): 4.55 µM | GI50 (DU-145 prostate): 1.86 µM | TGI (DU-145 prostate): 3.66 µM | GI50 (A498 renal): 2 µM | TGI (A498 renal): 4.87 µM | GI50 (IGROV1 ovarian): 1.72 µM | TGI (IGROV1 ovarian): 3.72 µM | GI50 (CAKI-1 renal): 1.4 µM | TGI (CAKI-1 renal): 3.01 µM | GI50 (SNB-75 CNS): 1.47 µM | TGI (SNB-75 CNS): 4.82 µM | GI50 (SR leukemia): 2 µM | TGI (SR leukemia): 9.11 µM

Nc1c([N+](=O)[O-])cc2c3c(cccc13)CC2
TGI (HOP-62 NSCLC): > 100 µM | TGI (SF-268 CNS): > 100 µM | TGI (NCI-H226 lung): > 100 µM | TGI (A549 NSCLC): > 100 µM | TGI (NCI-H522 lung): > 100 µM | TGI (RPMI-8226 leukemia): > 100 µM | TGI (SK-OV-3 ovarian): > 100 µM | TGI (TK-10 renal): > 100 µM | TGI (HCT-15 colon): > 100 µM | TGI (T-47D breast): > 100 µM | TGI (MDA-N): > 100 µM | TGI (HCC-2998 colon): > 100 µM | TGI (U251 CNS): > 100 µM | TGI (HT29 colon): > 100 µM | TGI (UACC-257 melanoma): > 100 µM | TGI (SNB-19 CNS): > 100 µM | TGI (NCI-H460 lung): > 100 µM | TGI (SK-MEL-5 melanoma): > 100 µM | TGI (SF-295 CNS): > 100 µM | TGI (SF-539 CNS): > 100 µM | TGI (UO-31 renal): > 100 µM | TGI (RXF 393 renal): 74.2 µM | TGI (HL-60(TB) leukemia): > 100 µM | TGI (COLO 205 colon): > 100 µM | TGI (NCI-H23 lung): > 100 µM | TGI (M14 melanoma): > 100 µM | TGI (NCI/ADR-RES ovarian): > 100 µM | TGI (BT-549 breast): > 100 µM | TGI (SW-620 colon): > 100 µM | TGI (OVCAR-5 ovarian): > 100 µM | TGI (SK-MEL-2 melanoma): > 100 µM | TGI (MDA-MB-231 breast): > 100 µM | TGI (SN12C renal): > 100 µM | TGI (CCRF-CEM leukemia): > 100 µM | TGI (HOP-92 NSCLC): > 100 µM | TGI (KM12 colon): > 100 µM | TGI (PC-3 prostate): > 100 µM | TGI (HCT-116 colon): > 100 µM | TGI (SK-MEL-28 melanoma): > 100 µM | TGI (K-562 leukemia): > 100 µM | TGI (ACHN renal): > 100 µM | TGI (HS 578T breast): > 100 µM | TGI (OVCAR-3 ovarian): > 100 µM | TGI (OVCAR-4 ovarian): > 100 µM | TGI (UACC-62 melanoma): > 100 µM | TGI (LOX IMVI melanoma): > 100 µM | TGI (EKVX NSCLC): > 100 µM | TGI (MOLT-4 leukemia): > 100 µM | TGI (786-0 renal): > 100 µM | TGI (OVCAR-8 ovarian): > 100 µM | TGI (MDA-MB-435): > 100 µM | TGI (DU-145 prostate): > 100 µM | TGI (A498 renal): > 100 µM | TGI (IGROV1 ovarian): > 100 µM | TGI (CAKI-1 renal): > 100 µM | TGI (SNB-75 CNS): > 100 µM | TGI (SR leukemia): > 100 µM
